1 compound from the NIST ThermoML archive (doi:10.1016/j.jct.2013.09.030) can be followed below.

± gives the expanded uncertainty stated by the source.

The data set in a line: cn = amount concentration of the nth substance listed, in mol/dm3. Particulars: 303.15 K; 101 kPa; Liquid; 4510 conductivity meter (Jenway, UK); c1 = 0.0005258.

Consider `CC1=C(C(=O)O)N2C(=O)[C@@H](NC(=O)[C@H](N)C3=CCC=CC3)[C@H]2SC1` [Cefradin] + O, for which the electrical conductivity was 0.000611 ± 0.0002 S/m.
